Source: US20260159512A1, “BCAT2 INHIBITORS” (AGIOS PHARMACEUTICALS, INC., priority 2021, published 2026)
Several values for one entry are separate records, joined by “and”; a condition that tells them apart may be missing. Equal values may be shown once.

How the values were obtained:
Conditions in all cases: average where tested multiple times
BCAT2 [1] = molecular target: T1, BCAT2 (Homo sapiens, UniProt O15382); experiment: BCAT2 in vitro enzyme inhibition assay (resazurin/diaphorase-coupled fluorescence); assay type: biochemical
T1 sequence (O15382 28-392): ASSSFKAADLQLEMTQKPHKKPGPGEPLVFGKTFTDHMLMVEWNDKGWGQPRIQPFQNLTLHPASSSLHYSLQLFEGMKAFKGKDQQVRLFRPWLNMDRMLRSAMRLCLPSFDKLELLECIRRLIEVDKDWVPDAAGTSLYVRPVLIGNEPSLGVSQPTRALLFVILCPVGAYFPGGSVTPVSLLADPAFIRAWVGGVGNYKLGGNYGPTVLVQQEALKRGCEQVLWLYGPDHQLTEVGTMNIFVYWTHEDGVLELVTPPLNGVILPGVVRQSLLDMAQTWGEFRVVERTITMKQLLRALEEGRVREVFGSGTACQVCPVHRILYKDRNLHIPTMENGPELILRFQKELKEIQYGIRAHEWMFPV
Summary of the method: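 Coupled fluorescence readout: glutamate formed from L-leucine/α-ketoglutarate transamination drives GDH/NAD/diaphorase reduction of resazurin (Ex 540/Em 590). Human BCAT2 was first exposed 1 h at room temperature to compound, top final 100 μM in 3-fold, 10-point series; substrate reaction ran 1 h before SDS quench, in technical duplicate with DMSO max and enzyme-free min controls.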

hBCAT1 = molecular target: T2, hBCAT1 (Homo sapiens, UniProt P54687); experiment: BCAT1 in vitro enzyme inhibition assay (resazurin/diaphorase-coupled fluorescence); assay type: biochemical
T2 sequence (P54687 1-386): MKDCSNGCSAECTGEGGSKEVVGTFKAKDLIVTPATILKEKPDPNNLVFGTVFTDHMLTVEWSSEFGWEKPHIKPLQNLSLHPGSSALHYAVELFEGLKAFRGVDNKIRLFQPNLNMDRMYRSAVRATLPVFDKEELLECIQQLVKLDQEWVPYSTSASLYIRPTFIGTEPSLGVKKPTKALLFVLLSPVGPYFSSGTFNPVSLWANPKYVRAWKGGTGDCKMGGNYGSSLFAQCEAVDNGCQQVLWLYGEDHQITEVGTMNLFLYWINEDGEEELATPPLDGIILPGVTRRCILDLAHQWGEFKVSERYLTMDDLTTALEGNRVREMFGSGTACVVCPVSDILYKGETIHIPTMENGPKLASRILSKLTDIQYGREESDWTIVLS
Summary of the method: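 Human BCAT1 activity read by resazurin/diaphorase-coupled fluorescence. Compounds added from 50× DMSO stocks at 1:50, giving 10-point 3-fold titrations from 100 μM top final concentration. Run in technical duplicate; repeat tests averaged.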

BCAT2 [2] = molecular target: T1, BCAT2; experiment: BCAT2 in vitro cell inhibition using engineered A549 cells (KMV cell assay, 13C6-KMV by LC-MS/MS); assay type: cell-based; set-up: The result was an engineered A549 cell line that expressed endogenous BCAT2; endogenous in cells; host or cells: A549 cells with MUT and BCAT1 knocked out by CRISPR/CAS9

Row | Compound | IC50 (BCAT2 [1]) [nM] | IC50 (hBCAT1) [nM] | IC50 (BCAT2 [2])
1 | CO[C@@H]1C[C@@H](NC(=O)c2ncc(Cl)s2)C[C@@H](n2c(CC(C)C)nc3cnc(-c4ccccn4)cc32)C1 (stereo in doubt) [Example 426, 5-chloro-N-((1S,3R,5R)-3-(2-isobutyl-6-(pyridin-2-yl)-1H-imidazo[4,5-c]pyridin-1-yl)-5-methoxycyclohexyl)thiazole-2-carboxamide] | ≤ 100 | 500 to 1000 | 100 to 500 nM
2 | CO[C@H]1C[C@@H](NC(=O)c2ncc(Cl)s2)C[C@@H](n2c(CC(C)C)nc3cnc(-c4nc[nH]n4)cc32)C1 (stereo in doubt) [Example 432, 5-chloro-N-((1S,3R,5S)-3-(2-isobutyl-6-(1H-1,2,4-triazol-3-yl)-1H-imidazo[4,5-c]pyridin-1-yl)-5-methoxycyclohexyl)thiazole-2-carboxamide] | ≤ 100 | < 500 | ≤ 100 nM
3 | O=C(NC1CCCC(n2c(-c3ccccn3)nc3cnc(-c4nnco4)cc32)C1)c1ccc(Br)s1 (stereo not drawn) [Example 1, N-(3-(6-(1,3,4-oxadiazol-2-yl)-2-(pyridin-2-yl)-1H-imidazo[4,5-c]pyridin-1-yl)cyclohexyl)-5-bromothiophene-2-carboxamide] | ≤ 100 | 1000 to 5000 | 100 to 500 nM
4 | O=C(NC1CCCC(n2c(-c3ncccc3F)nc3cnc(-c4nnco4)cc32)C1)c1ccc(Br)s1 (stereo not drawn) [Example 2, 5-bromo-N-(3-(2-(3-fluoropyridin-2-yl)-6-(1,3,4-oxadiazol-2-yl)-1H-imidazo[4,5-c]pyridin-1-yl)cyclohexyl)thiophene-2-carboxamide] | ≤ 100 | 500 to 1000 | 100 to 500 nM
5 | O=C(NC1CCCC(n2c(-c3ccccn3)nc3cnc(-c4cnco4)cc32)C1)c1ccc(Br)s1 (stereo not drawn) [Example 3, 5-bromo-N-(3-(6-(oxazol-5-yl)-2-(pyridin-2-yl)-1H-imidazo[4,5-c]pyridin-1-yl)cyclohexyl)thiophene-2-carboxamide] | ≤ 100 | 1000 to 5000 | 100 to 500 nM
6 | O=C(NC1CCCCC(n2c(-c3ccccn3)nc3cnc(-n4nccn4)cc32)C1)c1ncc(C(F)F)s1 (stereo not drawn) [Example 4, 5-(difluoromethyl)-N-(3-(2-(pyridin-2-yl)-6-(2H-1,2,3-triazol-2-yl)-1H-imidazo[4,5-c]pyridin-1-yl)cycloheptyl)thiazole-2-carboxamide] | ≤ 100 | > 5000 | 500 to 1000 nM
7 | O=C(N[C@H]1CCC[C@@H](n2c(-c3ccccn3)nc3cnc(-c4ncco4)cc32)C1)c1ccc(Br)s1 [Example 5, 5-bromo-N-((1S,3R)-3-(6-(oxazol-2-yl)-2-(pyridin-2-yl)-1H-imidazo[4,5-c]pyridin-1-yl)cyclohexyl)thiophene-2-carboxamide] | ≤ 100 | < 500 | ≤ 100 nM
8 | O=C(N[C@H]1CCC[C@@H](n2c(-c3ncccc3F)nc3cnc(-c4ncco4)cc32)C1)c1ccc(Br)s1 [Example 6, 5-bromo-N-((1S,3R)-3-(2-(3-fluoropyridin-2-yl)-6-(oxazol-2-yl)-1H-imidazo[4,5-c]pyridin-1-yl)cyclohexyl)thiophene-2-carboxamide] | ≤ 100 | < 500 | ≤ 100 nM
9 | O=C(N[C@H]1CCC[C@@H](n2c(-c3ccccc3F)nc3cnc(-c4ncco4)cc32)C1)c1ccc(Br)s1 [Example 7, 5-bromo-N-((1S,3R)-3-(2-(2-fluorophenyl)-6-(oxazol-2-yl)-1H-imidazo[4,5-c]pyridin-1-yl)cyclohexyl)thiophene-2-carboxamide] | ≤ 100 | < 500 | ≤ 100 nM
10 | C#Cc1cnc(C(=O)N[C@H]2CCC[C@@H](n3c(-c4ccccc4F)nc4cnc(-c5ncco5)cc43)C2)s1 [Example 8, 5-ethynyl-N-((1S,3R)-3-(2-(2-fluorophenyl)-6-(oxazol-2-yl)-1H-imidazo[4,5-c]pyridin-1-yl)cyclohexyl)thiazole-2-carboxamide] | ≤ 100 | < 500 | ≤ 100 nM
11 | O=C(N[C@H]1CCC[C@@H](n2c(-c3ccccn3)nc3cnc(-n4cncn4)cc32)C1)c1ccc(Br)s1 [Example 9, 5-bromo-N-((1S,3R)-3-(2-(pyridin-2-yl)-6-(1H-1,2,4-triazol-1-yl)-1H-imidazo[4,5-c]pyridin-1-yl)cyclohexyl)thiophene-2-carboxamide] | ≤ 100 | 500 to 1000 | ≤ 100 nM and 100 to 500 nM
12 | O=C(N[C@H]1CCC[C@@H](n2c(-c3ccccn3)nc3cnc(-n4ccnn4)cc32)C1)c1ccc(Br)s1 [Example 10, 5-bromo-N-((1S,3R)-3-(2-(pyridin-2-yl)-6-(1H-1,2,3-triazol-1-yl)-1H-imidazo[4,5-c]pyridin-1-yl)cyclohexyl)thiophene-2-carboxamide] | ≤ 100 | 1000 to 5000 | 500 to 1000 nM
13 | O=C(N[C@H]1CCC[C@@H](n2c(-c3ccccn3)nc3cnc(-n4nccn4)cc32)C1)c1ccc(Br)s1 [Example 11, 5-bromo-N-((1S,3R)-3-(2-(pyridin-2-yl)-6-(2H-1,2,3-triazol-2-yl)-1H-imidazo[4,5-c]pyridin-1-yl)cyclohexyl)thiophene-2-carboxamide] | ≤ 100 | < 500 | ≤ 100 nM
14 | O=C(N[C@H]1CCC[C@@H](n2c(-c3ncccc3F)nc3cnc(-n4ccnn4)cc32)C1)c1ccc(Br)s1 [Example 12, 5-bromo-N-((1S,3R)-3-(2-(3-fluoropyridin-2-yl)-6-(1H-1,2,3-triazol-1-yl)-1H-imidazo[4,5-c]pyridin-1-yl)cyclohexyl)thiophene-2-carboxamide] | ≤ 100 | < 500 | 100 to 500 nM
15 | O=C(N[C@H]1CCC[C@@H](n2c(-c3ncccc3F)nc3cnc(-n4nccn4)cc32)C1)c1ccc(Br)s1 [Example 13, 5-bromo-N-((1S,3R)-3-(2-(3-fluoropyridin-2-yl)-6-(2H-1,2,3-triazol-2-yl)-1H-imidazo[4,5-c]pyridin-1-yl)cyclohexyl)thiophene-2-carboxamide] | ≤ 100 | < 500 | ≤ 100 nM
16 | O=C(N[C@H]1CCC[C@@H](n2c(-c3ccccc3F)nc3cnc(-n4ccnn4)cc32)C1)c1ccc(Br)s1 [Example 14, 5-bromo-N-((1S,3R)-3-(2-(2-fluorophenyl)-6-(1H-1,2,3-triazol-1-yl)-1H-imidazo[4,5-c]pyridin-1-yl)cyclohexyl)thiophene-2-carboxamide] | ≤ 100 | < 500 | ≤ 100 nM
17 | O=C(N[C@H]1CCC[C@@H](n2c(-c3ccccc3F)nc3cnc(-n4nccn4)cc32)C1)c1ccc(Br)s1 [Example 15, 5-bromo-N-((1S,3R)-3-(2-(2-fluorophenyl)-6-(2H-1,2,3-triazol-2-yl)-1H-imidazo[4,5-c]pyridin-1-yl)cyclohexyl)thiophene-2-carboxamide] | ≤ 100 | < 500 | ≤ 100 nM
18 | O=C(N[C@H]1CCC[C@@H](n2c(-c3ncccc3F)nc3cnc(-n4cncn4)cc32)C1)c1ccc(Br)s1 [Example 16, 5-bromo-N-((1S,3R)-3-(2-(3-fluoropyridin-2-yl)-6-(1H-1,2,4-triazol-1-yl)-1H-imidazo[4,5-c]pyridin-1-yl)cyclohexyl)thiophene-2-carboxamide] | ≤ 100 | < 500 | ≤ 100 nM
19 | Cc1cnc(-c2cc3c(cn2)nc(-c2ccccn2)n3[C@@H]2CCC[C@H](NC(=O)c3ccc(Br)s3)C2)o1 [Example 18, 5-bromo-N-((1S,3R)-3-(6-(5-methyloxazol-2-yl)-2-(pyridin-2-yl)-1H-imidazo[4,5-c]pyridin-1-yl)cyclohexyl)thiophene-2-carboxamide] | ≤ 100 | < 500 | ≤ 100 nM
20 | O=C(N[C@H]1CCC[C@@H](n2c(-c3ccccn3)nc3cnc(-n4nccn4)cc32)C1)c1ncc(Br)s1 [Example 19, 5-bromo-N-((1S,3R)-3-(2-(pyridin-2-yl)-6-(2H-1,2,3-triazol-2-yl)-1H-imidazo[4,5-c]pyridin-1-yl)cyclohexyl)thiazole-2-carboxamide] | ≤ 100 | < 500 | ≤ 100 nM
